Results on four molecules are retold here after patent US6949522B2, “β-2′- or 3′-halonucleosides” (Pharmasset, Inc., priority 2001, dated 2005).

Each structure is given as a SMILES string.

One data set deals with HBV. Conditions: read-out: inhibition of HBV EC50; cited from earlier work.
Data set [1] concerns the target T1, adenosine deaminase (EC 3.5.4.4) (Bos taurus, UniProt P56658).
T1 sequence (P56658 1-363): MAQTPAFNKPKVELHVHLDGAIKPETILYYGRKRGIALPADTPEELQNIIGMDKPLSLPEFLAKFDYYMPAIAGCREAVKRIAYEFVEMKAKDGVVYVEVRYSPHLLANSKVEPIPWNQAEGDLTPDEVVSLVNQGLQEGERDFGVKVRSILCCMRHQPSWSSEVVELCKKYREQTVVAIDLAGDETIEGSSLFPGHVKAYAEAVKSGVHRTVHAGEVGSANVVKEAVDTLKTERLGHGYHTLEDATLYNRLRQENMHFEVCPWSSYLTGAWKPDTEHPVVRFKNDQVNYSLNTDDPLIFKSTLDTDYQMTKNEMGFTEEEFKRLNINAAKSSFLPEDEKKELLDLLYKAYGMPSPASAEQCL
The experiment in a line: in vitro. As to conditions: bovine, pH 7.4. On the procedure:
Assays were performed at 25° C. in phosphate buffer solution (pH 7.4) with substrate concentrations in the range of 15-100 μM and with 0.15 unit of adenosine deaminase (EC.3.5.4.4. from calf intestinal mucosa). The assays were monitored with a UV spectrometer at 265 nm. Initially, the qualitative assays were performed with D-β-2′-F-4′-S-d4A 24 (200 μM) in the presence of 0.24 unit of adenosine deaminase for 120 minutes to determine whether it is a substrate of this enzyme. The concentration (ct) of each substrate at a certain time (t) was calculated from the absorbance (At) at that time (t), where it was assumed that the total change of absorbance (A0−A∞) was directly related to the disappearance of the substrate.^35 Initial hydrolysis rates for each substrate concentration were measured manually through graphical curve fitting of the concentration versus time data for reaction of each substrate. From Lineweaver-Burke plot of these initial rates, Vmax (maximum velocity) and KM (Michaelis constant) were obtained for each substrate and kcat was also calculated with 0.15 unit of the enzyme (M.W. 33,000) in 2 mL of buffer solution.

The target in data set [2] is T2, adenosine deaminase (EC.3.5.4.4. from calf intestinal mucosa) (Bos taurus, UniProt P56658).
T2 sequence (P56658 1-363): T1 sequence (P56658 1-363)
Details: adenosine deaminase (EC.3.5.4.4. from calf intestinal mucosa); from tissue; host or cells: calf intestinal mucosa. As to conditions: literature value (ref. 28); cited from earlier work.

The test system of a further data set is HIV-1M184V. Conditions: cited from earlier work.
A further data set deals with HIV-1xxBRU. As to conditions: cited from earlier work.
The mark [3] stands for this setting: human PBM cells, Ref. 11(b) Lee et al.

What is called EC50 is the midpoint of the concentration-response curve. `Nc1nc(=O)n([C@@H]2CS[C@H](CO)O2)cc1F` [(−)-FTC, β-2′,3′-dideoxy-5-fluoro-3′-thiacytidine]: the EC50 in the data set with HBV was 0.24 µM.

The half-life is the time in which the quantity being followed falls by half. Molecule `Nc1ncnc2c1ncn2[C@@H]1O[C@H](CO)[C@@H](O)[C@H]1O` [Adenosine, reference compound] had a half-life at 20 μM in data set [1] of 30 s.

One may read the Km as the concentration of substrate that gives half-maximal velocity. As to `Nc1ncnc2c1ncn2[C@@H]1O[C@H](CO)C=C1F` [D-2′-F-d4A], the Km in data set [2] is 23 µM.

The EC90 is the point of the concentration-response curve where the effect stands at 90%. As to `Nc1nc(=O)n([C@@H]2O[C@H](CO)C=C2F)cc1F` [β-D-2′-F-d4FC], the EC50 is 9.6 µM with HIV-1M184V (EC50 instead of EC90 (footnote g), Ref. 23, read-out: Activity M184V, anti-HIV activity in EC50) and 3.1 µM in the data set with HIV-1xxBRU (EC50 instead of EC90 (footnote g), Ref. 23, read-out: Activity WT (xxBRU), anti-HIV activity in EC50). Also, the “FI, fold increase (EC90 HIV-1M184V/EC90 HIV-1xxBRU)” value with HIV-1M184V (Ref. 11(b) Lee et al.) is 3.5. In the data set with HIV-1M184V (fold increase in EC50 (footnote g), Ref. 23), the “F1 (fold increase) in EC50” value is 3^g. For the same molecule, the figures for the EC90 with HIV-1M184V (setting [3]) and with HIV-1xxBRU (setting [3]) were 34.7 µM and 9.9 µM, respectively.
